Earlier results in patent US12091408B2, “Store overload-induced calcium release inhibitors and methods for producing and using the same” (UTI Limited Partnership, priority 2013, dated 2024).

Experiments:
β-adrenergic receptor = conditions: previously shown by the inventors; cited from earlier work
[1] = tested on: ventricular arrhythmias and sudden death; conditions: mice, reported; via enhanced FKBP12.6 binding to RyR2; cited from earlier work

Row | SMILES | β-blockade (order of magnitude) (β-adrenergic receptor) | suppression of ventricular arrhythmias and sudden death [1]
1 | COc1ccccc1OCCNCC(O)COc1cccc2[nH]c3ccccc3c12 (stereo not drawn) [Compound 1, carvedilol] | nanomolar | 
2 | COc1ccc2c(c1)CN(C)CCS2 [Compound 99, S107] |  | suppress ventricular arrhythmias and sudden death in mice
3 | COc1ccc2c(c1)CN(C(=O)CCN1CCC(Cc3ccccc3)CC1)CCS2.Cl [Compound 102, JTV519] |  | suppress ventricular arrhythmias and sudden death in mice
